# Key:
# [1] = Bioavailability (biodistribution) of radiolabelled Lys-Lys bis-dithiocarbamate in rats; assay type: in vivo; settings: rat
# Description: (§1) The molecule was radiolabelled as described in Example (29). The radiolabelled compound is then isolated by HPLC, evaporated and taken up in 0.9% saline medium. The bioavailability in rats gives the following results (see Table 1):
# time 30 minutes and 60 minutes: 3 animals per point,
# time 3 hours: 2 animals per point,
# time 24 hours: 1 animal per point.
# The results are expressed as a percentage of dose injected per organ.
# [2] = HPLC analysis of rats' urine for unchanged complex; assay type: in vivo, rat; settings: rats' urine collected 1 hour 30 minutes after injection
# Description: as §1
# The rats' urine was collected 1 hour 30 minutes after injection and analysed by HPLC. The result of this analysis is 87% of unchanged complex.
# [3] = Brain distribution in the rat: crossing of the blood-brain barrier and striatum/cerebellum ratio; assay type: in vivo
# Description: The model chosen is the rat. Depending on the compounds, we performed one or two sacrifice times (30 minutes or 1 hour).
# At the times chosen, the brains were removed and the areas of interest were isolated and counted.
# the crossing of the blood-brain barrier by the compound under consideration,
# a striatum/cerebellum ratio.
compound,measurement,setting,value
NC(CCCCNC(=S)S)C(=O)NC(CCCCNC(=S)S)C(=O)O (centres unmarked) [Lys-Lys Bis-Dithiocarbamate],"percentage of dose injected per organ, adrenals",[1]; 30 min,0.02 percentage of dose injected per organ
same,"percentage of dose injected per organ, adrenals",[1]; 1 h,0.01 percentage of dose injected per organ
same,"percentage of dose injected per organ, adrenals",[1]; 3 h,0.01 percentage of dose injected per organ
same,"percentage of dose injected per organ, adrenals",[1]; 24 h,0.00 percentage of dose injected per organ
same,"percentage of dose injected per organ, bladder",[1]; 30 min,0.47 percentage of dose injected per organ
same,"percentage of dose injected per organ, bladder",[1]; 1 h,0.32 percentage of dose injected per organ
same,"percentage of dose injected per organ, bladder",[1]; 3 h,0.05 percentage of dose injected per organ
same,"percentage of dose injected per organ, bladder",[1]; 24 h,0.01 percentage of dose injected per organ
same,"percentage of dose injected per organ, blood",[1]; 30 min,0.67 percentage of dose injected per organ
same,"percentage of dose injected per organ, blood",[1]; 1 h,0.34 percentage of dose injected per organ
same,"percentage of dose injected per organ, blood",[1]; 3 h,0.20 percentage of dose injected per organ
same,"percentage of dose injected per organ, blood",[1]; 24 h,0.11 percentage of dose injected per organ
same,"percentage of dose injected per organ, brain",[1]; 30 min,0.03 percentage of dose injected per organ
same,"percentage of dose injected per organ, brain",[1]; 1 h,0.01 percentage of dose injected per organ
same,"percentage of dose injected per organ, brain",[1]; 3 h,0.01 percentage of dose injected per organ
same,"percentage of dose injected per organ, brain",[1]; 24 h,0.01 percentage of dose injected per organ
same,"percentage of dose injected per organ, caecum",[1]; 30 min,0.31 percentage of dose injected per organ
same,"percentage of dose injected per organ, caecum",[1]; 1 h,0.18 percentage of dose injected per organ
same,"percentage of dose injected per organ, caecum",[1]; 3 h,0.11 percentage of dose injected per organ
same,"percentage of dose injected per organ, caecum",[1]; 24 h,0.66 percentage of dose injected per organ
same,"percentage of dose injected per organ, colon",[1]; 30 min,0.46 percentage of dose injected per organ
same,"percentage of dose injected per organ, colon",[1]; 1 h,0.23 percentage of dose injected per organ
same,"percentage of dose injected per organ, colon",[1]; 3 h,0.19 percentage of dose injected per organ
same,"percentage of dose injected per organ, colon",[1]; 24 h,0.87 percentage of dose injected per organ
same,"percentage of dose injected per organ, heart",[1]; 30 min,0.21 percentage of dose injected per organ
same,"percentage of dose injected per organ, heart",[1]; 1 h,0.10 percentage of dose injected per organ
same,"percentage of dose injected per organ, heart",[1]; 3 h,0.06 percentage of dose injected per organ
same,"percentage of dose injected per organ, heart",[1]; 24 h,0.03 percentage of dose injected per organ
same,"percentage of dose injected per organ, intestine",[1]; 30 min,20.55 percentage of dose injected per organ
same,"percentage of dose injected per organ, intestine",[1]; 1 h,32.92 percentage of dose injected per organ
same,"percentage of dose injected per organ, intestine",[1]; 3 h,51.4 percentage of dose injected per organ
same,"percentage of dose injected per organ, intestine",[1]; 24 h,0.49 percentage of dose injected per organ
same,"percentage of dose injected per organ, kidneys",[1]; 30 min,4.55 percentage of dose injected per organ
same,"percentage of dose injected per organ, kidneys",[1]; 1 h,4.18 percentage of dose injected per organ
same,"percentage of dose injected per organ, kidneys",[1]; 3 h,3.87 percentage of dose injected per organ
same,"percentage of dose injected per organ, kidneys",[1]; 24 h,2.65 percentage of dose injected per organ
same,"percentage of dose injected per organ, liver",[1]; 30 min,14.38 percentage of dose injected per organ
same,"percentage of dose injected per organ, liver",[1]; 1 h,9.08 percentage of dose injected per organ
same,"percentage of dose injected per organ, liver",[1]; 3 h,3.84 percentage of dose injected per organ
same,"percentage of dose injected per organ, liver",[1]; 24 h,1.33 percentage of dose injected per organ
same,"percentage of dose injected per organ, lungs",[1]; 30 min,0.43 percentage of dose injected per organ
same,"percentage of dose injected per organ, lungs",[1]; 1 h,0.28 percentage of dose injected per organ
same,"percentage of dose injected per organ, lungs",[1]; 3 h,0.15 percentage of dose injected per organ
same,"percentage of dose injected per organ, lungs",[1]; 24 h,0.08 percentage of dose injected per organ
same,"percentage of dose injected per organ, spleen",[1]; 30 min,0.13 percentage of dose injected per organ
same,"percentage of dose injected per organ, spleen",[1]; 1 h,0.09 percentage of dose injected per organ
same,"percentage of dose injected per organ, spleen",[1]; 3 h,0.05 percentage of dose injected per organ
same,"percentage of dose injected per organ, spleen",[1]; 24 h,0.04 percentage of dose injected per organ
same,"percentage of dose injected per organ, stomach",[1]; 30 min,8.24 percentage of dose injected per organ
same,"percentage of dose injected per organ, stomach",[1]; 1 h,3.36 percentage of dose injected per organ
same,"percentage of dose injected per organ, stomach",[1]; 3 h,2.64 percentage of dose injected per organ
same,"percentage of dose injected per organ, stomach",[1]; 24 h,0.08 percentage of dose injected per organ
same,"percentage of dose injected per organ, urine",[1]; 30 min,14.39 percentage of dose injected per organ
same,"percentage of dose injected per organ, urine",[1]; 1 h,14.70 percentage of dose injected per organ
same,"percentage of dose injected per organ, urine",[1]; 3 h,0.44 percentage of dose injected per organ
same,"percentage of dose injected per organ, urine",[1]; 24 h,0.05 percentage of dose injected per organ
same,unchanged complex in urine,[2],87%
Cc1ccc(C2CC3CCC(C2COC(=O)C2CCCCNC(=S)[S][Tc](#[N])[S]C(=S)NCCCCC(=O)N2)N3C)cc1 (centres unmarked) [Compound 52],Biodistribution: cerebellum,[3]; 30′,30′: cerebellum: 0.114%
same,Biodistribution: crossing of blood-brain barrier,[3]; 30′,barrier: 0.358%
same,Biodistribution: striatum,[3]; 30′,striatum: 0.133%
same,S/C (striatum/cerebellum ratio),[3]; 30′,1.17
same,Biodistribution: cerebellum,[3]; 1 h,1 h: cerebellum: 0.065%
same,Biodistribution: crossing of blood-brain barrier,[3]; 1 h,barrier: 0.182%
same,Biodistribution: striatum,[3]; 1 h,striatum: 0.064%
same,S/C (striatum/cerebellum ratio),[3]; 1 h,0.98
